From patent publication US20260285888A1, “HETEROCYCLIC COMPOUND AND USE THEREOF” (OTSUKA PHARMACEUTICAL CO., LTD., priority 2023, published 2026)

Columns and labels:
[1] = Study for confirmation of conversion to brexpiprazole in a buffer (stability of the evaluation compounds); assay type: physicochemical; conditions: in buffer, average of duplicate; for Concentration of brexpiprazole formed: 60-minute reaction sample; for Concentration of evaluation compound decreased: decrease in 60-minute vs 0-minute reaction sample
Summary of the method: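 Compounds (final 1 μmol/L, from 100 μmol/L working solutions) incubated in buffer at 37° C. for 0 or 60 min, in duplicate, after 3 min pre-incubation of the reaction solution. Reactions stopped with acetonitrile/isopropanol (4:1) containing internal standards; compound and formed brexpiprazole quantified against 0.01–1 μmol/L calibration samples.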

[2] = in vitro; assay type: cell-based, human; conditions: human, differentiated hl-60 cells, 300 μmol/L, about 24 hours, PMA-differentiated HL-60 cells, LDH; no-treatment 0%, cell lysis buffer 100%; read-out: cytotoxicity (%) Evaluation compound results
Summary of the method: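 HL-60 cells differentiated ~72 h with 10 nM PMA, then exposed ~24 h to compound at 300 μmol/L final in RPMI with 2% FBS. LDH release in supernatant gave cytotoxicity % scaled between untreated (0%) and lysis-buffer (100%) groups; triplicate.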

| SMILES | Concentration of brexpiprazole formed [1] [nM] | Concentration of evaluation compound decreased [1] [nM] | cytotoxicity at 24 h, 300 µM [2] [%] |
| --- | --- | --- | --- |
| C[C@H](NP(=O)([O-])OC[N+]1(CCCCOc2ccc3ccc(=O)[nH]c3c2)CCN(c2cccc3sccc23)CC1)C(=O)OC(C)(C)C [EX 157, (4-(benzo[b]thiophen-4-yl)-1-(4-((2-oxo-1,2-dihydroquinolin-7-yl)oxy)butyl)piperazin-1-ium-1-yl)methyl (S)-(1-(tert-butoxy)-1-oxopropan-2-yl)phosphoramidate] | 0 | 80 | -4 |
| COCC(COC)OP(=O)([O-])OC[N+]1(CCCCOc2ccc3ccc(=O)[nH]c3c2)CCN(c2cccc3sccc23)CC1 [EX 56, (4-(benzo[b]thiophen-4-yl)-1-(4-((2-oxo-1,2-dihydroquinolin-7-yl)oxy)butyl)piperazin-1-ium-1-yl)methyl (1,3-dimethoxypropan-2-yl) phosphate] | 0 | 40 | -6 |
| CC(C)C(=O)OCOP(=O)([O-])OC[N+]1(CCCCOc2ccc3ccc(=O)[nH]c3c2)CCN(c2cccc3sccc23)CC1 [EX 24, (4-(benzo[b]thiophen-4-yl)-1-(4-((2-oxo-1,2-dihydroquinolin-7-yl)oxy)butyl)piperazin-1-ium-1-yl)methyl ((isobutyryloxy)methyl) phosphate] | 0 | -110 | 10 |
| O=c1ccc2ccc(OCCCC[N+]3(COP(=O)([O-])OCC4(CO)CC4)CCN(c4cccc5sccc45)CC3)cc2[nH]1 [EX 47, (4-(benzo[b]thiophen-4-yl)-1-(4-((2-oxo-1,2-dihydroquinolin-7-yl)oxy)butyl)piperazin-1-ium-1-yl)methyl ((1-(hydroxymethyl)cyclopropyl)methyl) phosphate] | 0 | 0 | -5 |
| CCCCOCCOP(=O)([O-])OC[N+]1(CCCCOc2ccc3ccc(=O)[nH]c3c2)CCN(c2cccc3sccc23)CC1 [EX 96, (4-(benzo[b]thiophen-4-yl)-1-(4-((2-oxo-1,2-dihydroquinolin-7-yl)oxy)butyl)piperazin-1-ium-1-yl)methyl (2-butoxyethyl) phosphate] | 0 | 30 | 12 |
| CCOC(=O)CC(C)(C)CC(=O)OCOP(=O)([O-])OC[N+]1(CCCCOc2ccc3ccc(=O)[nH]c3c2)CCN(c2cccc3sccc23)CC1 [EX 32, (4-(benzo[b]thiophen-4-yl)-1-(4-((2-oxo-1,2-dihydroquinolin-7-yl)oxy)butyl)piperazin-1-ium-1-yl)methyl (((5-ethoxy-3,3-dimethyl-5-oxopentanoyl)oxy)methyl) phosphate] | 0 | 10 | 5 |
| CCOC(=O)CCCCCOC(=O)OCOP(=O)([O-])OC[N+]1(CCCCOc2ccc3ccc(=O)[nH]c3c2)CCN(c2cccc3sccc23)CC1 [EX 144] | 0 | 120 | 18 |
| O=c1ccc2ccc(OCCCC[N+]3(COP(=O)([O-])OCCN4CCCCC4)CCN(c4cccc5sccc45)CC3)cc2[nH]1 [EX 118, (4-(benzo[b]thiophen-4-yl)-1-(4-((2-oxo-1,2-dihydroquinolin-7-yl)oxy)butyl)piperazin-1-ium-1-yl)methyl (2-(piperidin-1-yl)ethyl) phosphate] | 0 | 60 | -8 |
| COCC1CCC(COP(=O)([O-])OC[N+]2(CCCCOc3ccc4ccc(=O)[nH]c4c3)CCN(c3cccc4sccc34)CC2)CC1 (stereo not drawn) [EX 54, (4-(benzo[b]thiophen-4-yl)-1-(4-((2-oxo-1,2-dihydroquinolin-7-yl)oxy)butyl)piperazin-1-ium-1-yl)methyl ((4-(methoxymethyl)cyclohexyl)methyl) phosphate] | 0 | 140 | -10 |

Further lines, with some results ahead:

| Concentration of brexpiprazole formed [1] [nM] | Concentration of evaluation compound decreased [1] [nM] | SMILES | cytotoxicity at 24 h, 300 µM [2] [%] |
| --- | --- | --- | --- |
| 0 | 50 | CCCCCCCC(=O)OC(C)OP(=O)([O-])OC[N+]1(CCCCOc2ccc3ccc(=O)[nH]c3c2)CCN(c2cccc3sccc23)CC1 (stereo not drawn) [EX 26, (4-(benzo[b]thiophen-4-yl)-1-(4-((2-oxo-1,2-dihydroquinolin-7-yl)oxy)butyl)piperazin-1-ium-1-yl)methyl (1-(octanoyloxy)ethyl) phosphate] | -5 |
| 0 | 120 | O=c1ccc2ccc(OCCCC[N+]3(COP(=O)([O-])OCC4CC4)CCN(c4cccc5sccc45)CC3)cc2[nH]1 [EX 91, (4-(benzo[b]thiophen-4-yl)-1-(4-((2-oxo-1,2-dihydroquinolin-7-yl)oxy)butyl)piperazin-1-ium-1-yl)methyl (cyclopropylmethyl) phosphate] | 17 |
| 0 | 60 | COCCOCOCCCCOP(=O)([O-])OC[N+]1(CCCCOc2ccc3ccc(=O)[nH]c3c2)CCN(c2cccc3sccc23)CC1 [EX 53, (4-(benzo[b]thiophen-4-yl)-1-(4-((2-oxo-1.2-dihydroquinolin-7-yl)oxy)butyl)piperazin-1-ium-1-yl)methyl (4-((2-methoxyethoxy)methoxy)butyl) phosphate] | -3 |
| 0 | -70 | O=C(OCOP(=O)([O-])OC[N+]1(CCCCOc2ccc3ccc(=O)[nH]c3c2)CCN(c2cccc3sccc23)CC1)OCC1CCOCC1 [EX 142, (4-(benzo[b]thiophen-4-yl)-1-(4-((2-oxo-1,2-dihydroquinolin-7-yl)oxy)butyl)piperazin-1-ium-1-yl)methyl (((((tetrahydro-2H-pyran-4-yl)methoxy)carbonyl)oxy)methyl) phosphate] | 8 |
| 0 | 90 | CC(C)OCCOCCOCCOC(=O)OCOP(=O)([O-])OC[N+]1(CCCCOc2ccc3ccc(=O)[nH]c3c2)CCN(c2cccc3sccc23)CC1 [EX 137, (4-(benzo[b]thiophen-4-yl)-1-(4-((2-oxo-1,2-dihydroquinolin-7-yl)oxy)butyl)piperazin-1-ium-1-yl)methyl (14-methyl-3-oxo-2,4,7,10,13-pentaoxapentadecyl) phosphate] | -8 |
| 0 | 0 | CCOCCOCCOCCOC(=O)OCOP(=O)([O-])OC[N+]1(CCCCOc2ccc3ccc(=O)[nH]c3c2)CCN(c2cccc3sccc23)CC1 [EX 136, (4-(benzo[b]thiophen-4-yl)-1-(4-((2-oxo-1,2-dihydroquinolin-7-yl)oxy)butyl)piperazin-1-ium-1-yl)methyl (3-oxo-2,4,7,10,13-pentaoxapentadecyl) phosphate] | -9 |
